# Measurements published in paper PMC9297976 (Journal of Applied Toxicology, 2021).
# Assays:
# medaka Esr1 (mEsr1) [1] = target: T1, medaka Esr1 (mEsr1) (Oryzias latipes, UniProt P50241); assay: cell-based; parameters: species or system Japanese medaka (Oryzias latipes)
# T1 sequence (P50241 1-620): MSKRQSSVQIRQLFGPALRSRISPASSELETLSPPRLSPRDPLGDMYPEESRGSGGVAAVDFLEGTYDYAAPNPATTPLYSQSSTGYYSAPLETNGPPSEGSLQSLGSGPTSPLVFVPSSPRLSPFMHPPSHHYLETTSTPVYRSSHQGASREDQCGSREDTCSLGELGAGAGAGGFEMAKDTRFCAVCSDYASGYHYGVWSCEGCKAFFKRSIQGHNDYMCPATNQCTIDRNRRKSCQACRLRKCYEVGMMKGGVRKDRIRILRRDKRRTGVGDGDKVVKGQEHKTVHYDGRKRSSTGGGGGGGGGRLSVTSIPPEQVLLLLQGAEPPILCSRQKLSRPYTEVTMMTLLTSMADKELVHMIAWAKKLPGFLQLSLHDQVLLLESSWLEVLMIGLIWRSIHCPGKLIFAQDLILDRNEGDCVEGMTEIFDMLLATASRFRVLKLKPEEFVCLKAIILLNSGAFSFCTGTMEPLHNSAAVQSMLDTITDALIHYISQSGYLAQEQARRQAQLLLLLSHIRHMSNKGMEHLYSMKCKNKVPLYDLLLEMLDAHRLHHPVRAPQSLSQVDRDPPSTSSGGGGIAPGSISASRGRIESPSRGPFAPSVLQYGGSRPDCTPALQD
# medaka Esr1 (mEsr1) [2] = target: T1, medaka Esr1 (mEsr1); assay: Medaka Esr1 reporter gene assay, antagonist assay; type: cell-based, Japanese medaka (Oryzias latipes); conditions: E2 spiked at 1.0 nM (B); MAC = 1.0 × 10^−5 M
# medaka ARβ (mArβ) [3] = target: T2, medaka ARβ (mArβ) (Oryzias latipes, UniProt D1MV73); assay: Medaka ARβ reporter gene assay, agonist assay; type: cell-based, Japanese medaka (Oryzias latipes); conditions: MAC = 1.0 × 10^−5 M
# T2 sequence (D1MV73 1-744): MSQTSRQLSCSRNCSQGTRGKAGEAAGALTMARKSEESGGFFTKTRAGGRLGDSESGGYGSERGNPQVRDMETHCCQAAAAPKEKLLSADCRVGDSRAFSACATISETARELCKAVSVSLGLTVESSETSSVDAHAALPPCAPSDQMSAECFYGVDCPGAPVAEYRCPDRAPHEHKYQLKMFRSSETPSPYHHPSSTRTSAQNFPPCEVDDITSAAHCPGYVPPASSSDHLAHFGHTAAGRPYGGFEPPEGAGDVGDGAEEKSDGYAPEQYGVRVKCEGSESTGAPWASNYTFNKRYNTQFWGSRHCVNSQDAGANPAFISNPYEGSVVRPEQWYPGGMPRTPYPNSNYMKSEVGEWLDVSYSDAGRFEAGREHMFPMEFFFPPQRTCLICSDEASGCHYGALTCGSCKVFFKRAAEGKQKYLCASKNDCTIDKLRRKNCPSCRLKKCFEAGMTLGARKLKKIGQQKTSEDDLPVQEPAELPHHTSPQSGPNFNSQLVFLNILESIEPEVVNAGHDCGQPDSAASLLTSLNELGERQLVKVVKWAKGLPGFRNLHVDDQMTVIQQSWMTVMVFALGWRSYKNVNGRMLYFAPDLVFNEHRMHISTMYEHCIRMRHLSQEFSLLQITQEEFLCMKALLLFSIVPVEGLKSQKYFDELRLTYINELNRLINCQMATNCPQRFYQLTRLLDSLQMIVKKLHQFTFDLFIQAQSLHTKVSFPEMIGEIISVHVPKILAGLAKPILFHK
# medaka ARβ (mArβ) [4] = target: T2, medaka ARβ (mArβ); assay: Medaka ARβ reporter gene assay, antagonist assay; type: cell-based, Japanese medaka (Oryzias latipes); conditions: 11‐KT spiked at 50 nM (D); MAC = 1.0 × 10^−5 M
# [5] = test system: Japanese medaka (Oryzias latipes); assay: Fish Short‐Term Reproduction Assay; type: in vivo; conditions: for GSI Female / GSI Male / HSI Female / HSI Male / Length Female / Length Male / Weight Female / Weight Male: completion of exposure
# [6] = 177 μg/L measured, 21 d, sig. ↑ vs control
# [7] = 353 μg/L measured, 21 d, sig. ↑ vs control
# [8] = 353 μg/L measured, 21 d, sig. ↓ vs control
# [9] = measured concentration 54.4 μg/L
# [10] = measured concentration 104 μg/L
# [11] = measured concentration 177 μg/L
# [12] = measured concentration 353 μg/L
structure (smiles),measurement,setting,value
"Oc1cc(Cl)ccc1Oc1ccc(Cl)cc1Cl [TCS, Triclosan]",Agonistic activity PC10,medaka Esr1 (mEsr1) [1],PC10 = 2.0 × 10^−6 M
same,In vitro positive: Esr,medaka Esr1 (mEsr1) [1]; mode of action in which EC50 or PC10 was obtained in RGA,Esr
same,Antagonistic activity,medaka Esr1 (mEsr1) [2],NE (MAC = 1.0 × 10^−5 M)^(B)
same,Agonistic activity,medaka ARβ (mArβ) [3],NE (MAC = 1.0 × 10^−5 M)
same,Antagonistic activity,medaka ARβ (mArβ) [4],NE (MAC = 1.0 × 10^−5 M)^(D)
same,Fertility rate,"[5]; 54.4 μg/L measured, 21 d",96 ± 3.3%
same,"Hepatic VTG, female","[5]; 54.4 μg/L measured, 21 d",616 ± 220 ng/mg‐liver
same,"Hepatic VTG, male","[5]; 54.4 μg/L measured, 21 d",3.3 ± 4.7 ng/mg‐liver
same,Mortality,"[5]; 54.4 μg/L measured, 21 d",4.2%
same,"Mortality, number of dead fish","[5]; 54.4 μg/L measured, 21 d",1
same,Number of fertilized eggs (per female per day),"[5]; 54.4 μg/L measured, 21 d",25 ± 4.0
same,Number of total eggs (per female per day),"[5]; 54.4 μg/L measured, 21 d",26 ± 3.8
same,SSC female (joint plates with papillary processes),"[5]; 54.4 μg/L measured, 21 d",0 ± 0
same,Fertility rate,"[5]; 104 μg/L measured, 21 d",98 ± 1.4%
same,"Hepatic VTG, female","[5]; 104 μg/L measured, 21 d",698 ± 32 ng/mg‐liver
same,"Hepatic VTG, male","[5]; 104 μg/L measured, 21 d",4.5 ± 2.7 ng/mg‐liver
same,Mortality,"[5]; 104 μg/L measured, 21 d",13%
same,"Mortality, number of dead fish","[5]; 104 μg/L measured, 21 d",3
same,Number of fertilized eggs (per female per day),"[5]; 104 μg/L measured, 21 d",24 ± 1.0
same,Number of total eggs (per female per day),"[5]; 104 μg/L measured, 21 d",24 ± 1.1
same,SSC female (joint plates with papillary processes),"[5]; 104 μg/L measured, 21 d",0 ± 0
same,Fertility rate,"[5]; 177 μg/L measured, 21 d",97 ± 1.5%
same,Number of fertilized eggs (per female per day),"[5]; 177 μg/L measured, 21 d",18 ± 7.0
same,Number of total eggs (per female per day),"[5]; 177 μg/L measured, 21 d",19 ± 7.2
same,SSC female (joint plates with papillary processes),"[5]; 177 μg/L measured, 21 d",0 ± 0
same,"Hepatic VTG, female",[5]; [6],955 ± 73 ng/mg‐liver
same,Mortality,[5]; [6],29%
same,"Mortality, number of dead fish",[5]; [6],7
same,"Hepatic VTG, male","[5]; 177 μg/L measured, 21 d, sig. ↓ vs control",0.9 ± 0.1 ng/mg‐liver
same,Fertility rate,"[5]; 353 μg/L measured, 21 d",98 ± 0.8%
same,SSC female (joint plates with papillary processes),"[5]; 353 μg/L measured, 21 d",0 ± 0
same,"Hepatic VTG, female",[5]; [7],"1,111 ± 265 ng/mg‐liver"
same,Mortality,[5]; [7],50%
same,"Mortality, number of dead fish",[5]; [7],12
same,"Hepatic VTG, male",[5]; [8],1.0 ± 0.3 ng/mg‐liver
same,Number of fertilized eggs (per female per day),[5]; [8],10 ± 1.9
same,Number of total eggs (per female per day),[5]; [8],10 ± 2.0
same,Change of hepatic VTG levels in females (in words),[5]; 21 d,significant increase
same,"Fecundity, number of total eggs (in words)",[5]; 21 d,statistically significant decrease
same,minimal effective concentration,"[5]; Oryzias latipes, 504 h, read-out: LOECmVTG",> 0.353 µg/mL
same,Fertility rate (in words),[5]; chemicals with significant decrease of number of total eggs,no significant effect
same,LOECTOX,[5]; lowest observed effect concentration on mortality,177 µg/L
same,GSI Female,[5]; [9],7.3 ± 0.4%
same,GSI Male,[5]; [9],1.00 ± 0.13%
same,HSI Female,[5]; [9],3.8 ± 0.40%
same,HSI Male,[5]; [9],1.6 ± 0.23%
same,Length Female,[5]; [9],33.5 ± 0.7 mm
same,Length Male,[5]; [9],33.6 ± 0.7 mm
same,Weight Female,[5]; [9],449 ± 11 mg
same,Weight Male,[5]; [9],379 ± 28 mg
same,GSI Female,[5]; [10],7.5 ± 0.6%
same,GSI Male,[5]; [10],1.00 ± 0.23%
same,HSI Female,[5]; [10],3.7 ± 0.79%
same,HSI Male,[5]; [10],1.5 ± 0.09%
same,Length Female,[5]; [10],32.8 ± 1.1 mm
same,Length Male,[5]; [10],34.8 ± 0.7 mm
same,Weight Female,[5]; [10],409 ± 20 mg
same,Weight Male,[5]; [10],417 ± 13 mg
same,GSI Female,[5]; [11],7.9 ± 1.4%
same,GSI Male,[5]; [11],0.90 ± 0.17%
same,HSI Female,[5]; [11],3.8 ± 0.30%
same,HSI Male,[5]; [11],1.4 ± 0.41%
same,Length Female,[5]; [11],32.4 ± 1.3 mm
same,Length Male,[5]; [11],33.3 ± 0.9 mm
same,Weight Female,[5]; [11],425 ± 45 mg
same,Weight Male,[5]; [11],380 ± 66 mg
same,GSI Female,[5]; [12],8.7 ± 1.1%
same,GSI Male,[5]; [12],1.20 ± 0.73%
same,HSI Female,[5]; [12],4.5 ± 0.23%
same,HSI Male,[5]; [12],2.4 ± 1.08%
same,Length Female,[5]; [12],33.2 ± 0.9 mm
same,Length Male,[5]; [12],33.3 ± 1.5 mm
same,Weight Female,[5]; [12],437 ± 30 mg
same,Weight Male,[5]; [12],361 ± 57 mg
